Experiments:
CWR22PC cells = assay: Cell growth (cell number) of prostate cancer cells under long-term treatment; format: cell-based, Human; conditions: CSS media; for R1881-induced cell growth: CWR22PC, + 0.5 µM compound 1
Description: (§1) CWR22PC cells were seeded at a density of 2 × 10^5 cells/well in 6-well plates (Corning# 3516) in 2 mL of RPMI-1640 media supplemented with 10% charcoal-stripped serum (CSS) in duplicate. 24 hours later, cells were treated with 100 pM R1881, 30 nM dexamethasone, 0.5 µM compound 1, 1 µM of ARD1 or ARD2, or combinations thereof as indicated. Fresh media containing the indicated treatment was replaced every 5-7 days. Cell supernatant was collected on Day 12 and 19 and stored at -80° C. for PSA AlphaLISA assay. Cell images were taken on Day 12 and 19 using Leica DMi8 microscope (LEICA MICROSYSTEMS, INC. IL) with a 10X magnification. Cells were then trypsinized and cell numbers in each treatment group were counted three times, average counts were plotted with GraphPad Prism 8. Cell pellets were washed once with 1XPBS and then lysed in 600 µL RLT RNA lysis buffer and stored at -80° C. RNA was extracted for end of study (EOS) biomarker analysis for which the detailed procedures are described in the section RNA Extraction and RT-qPCR analysis.
The impact of ARD1 and ARD2 on the growth of prostate cancer cells was explored. CWR22PC cells were plated in charcoal-stripped serum (CSS) media and treated with vehicle or 0.1 nM R1881 (synthetic AR ligand) without or with 1 µM of ARD1 or ARD2. Media with treatments were replaced every 5-7 days and cells were maintained at 37° C. for 22 days. Supernatant of each group was harvested at day 22 to measure PSA secretion by PSA AlphaLISA assays.
as §1, with “24 hours later, cells were treated with 100 pM R1881, 30 nM dexamethasone, 0.5 µM compound 1, 1 µM of ARD1 or ARD2, or combinations thereof as indicated.” left out, “15” for “12”, “21” for “19”, “assay.” for “assay. Cell images were taken on Day 12 and 19 using Leica DMi8 microscope (LEICA MICROSYSTEMS, INC. IL) with a 10X magnification.”

PSA = PSA AlphaLISA assay of cell supernatant (PSA secretion); format: cell-based, Human; conditions: CSS media; for R1881-induced PSA secretion: CWR22PC, + 0.5 µM compound 1
[1] = system: AR and/or GR target genes KLK4, KLF9, FKBP5, PER1, SGK1; assay: Biomarker analysis by RT-qPCR, 48 hours; format: cell-based, Human; conditions: CWR22PC and 22Rv1 cells
Description: CWR22PC and 22RV1 cells were seeded at a density of 2 × 10^5 cells/well in 6-well plates in 2 mL of RPMI-1640 media supplemented with 10% charcoal-stripped serum (CSS). Cells were treated with 100 pM R1881, 30 nM dexamethasone, 0.5 µM compound 1, 1 µM of ARD1 or ARD2, or combinations thereof as indicated and maintained at 37° C. 48 hours later, media was removed, and cells were washed once with PBS and then harvested for mRNA analysis.
(§2) Adherent cells or cell pellets harvested for mRNA analysis were first washed once with PBS and then resuspended in 600 µL of RLT lysis buffer (Qiagen Inc.) supplemented with 1% of betamercaptoethanol. RNA was extracted by QIAcube using the RNeasy Mini QIAcube kit (Qiagen#74116) according to manufacturer’s instructions. The extracted RNA samples were then quantified using a Nanodrop 8000 Spectrophotometer. RT-qPCR reactions were set up in triplicate using 3 µL of 3 ng/ µL of RNA in 7 µL of pre-mixed SensiFAST™ SYBR No-ROX One-Step Kit reagents (BIOLINE# BIO-98005). The RT-qPCR reactions were run on a Bio-Rad CFX384 Real-Time PCR System and data was plotted with GraphPad Prism 8 software.
CWR22PC and 22Rv1 cells were seeded at a density of 2 × 10^5 cells/well in 6-well plates in 2 mL of RPMI-1640 media supplemented with 10% charcoal-stripped serum (CSS). […] 48 hours later, media was removed, and cells were washed once with PBS and then harvested for mRNA analysis.

[2] = system: AR and GR target genes in CWR22PC cells; assay: End of study (EOS) biomarker analysis by RT-qPCR; format: cell-based, Human; conditions: CSS media, + 0.5 µM compound 1
Description: as §1, §2
CWR22PC cells were seeded at a density of 2 × 10^5 cells/well in 6-well plates (Corning# 3516) in 2 mL of RPMI-1640 media supplemented with 10% charcoal-stripped serum (CSS) in duplicate. […] Cells were then trypsinized and cell numbers in each treatment group were counted three times, average counts were plotted with GraphPad Prism 8. […]

GR = molecular target: T1, GR (Homo sapiens, UniProt P04150); conditions: prostate cancer models with GR upregulated, in response to glucocorticoids; Zhou et al. 2019; cited from earlier work
T1 sequence (P04150 1-777): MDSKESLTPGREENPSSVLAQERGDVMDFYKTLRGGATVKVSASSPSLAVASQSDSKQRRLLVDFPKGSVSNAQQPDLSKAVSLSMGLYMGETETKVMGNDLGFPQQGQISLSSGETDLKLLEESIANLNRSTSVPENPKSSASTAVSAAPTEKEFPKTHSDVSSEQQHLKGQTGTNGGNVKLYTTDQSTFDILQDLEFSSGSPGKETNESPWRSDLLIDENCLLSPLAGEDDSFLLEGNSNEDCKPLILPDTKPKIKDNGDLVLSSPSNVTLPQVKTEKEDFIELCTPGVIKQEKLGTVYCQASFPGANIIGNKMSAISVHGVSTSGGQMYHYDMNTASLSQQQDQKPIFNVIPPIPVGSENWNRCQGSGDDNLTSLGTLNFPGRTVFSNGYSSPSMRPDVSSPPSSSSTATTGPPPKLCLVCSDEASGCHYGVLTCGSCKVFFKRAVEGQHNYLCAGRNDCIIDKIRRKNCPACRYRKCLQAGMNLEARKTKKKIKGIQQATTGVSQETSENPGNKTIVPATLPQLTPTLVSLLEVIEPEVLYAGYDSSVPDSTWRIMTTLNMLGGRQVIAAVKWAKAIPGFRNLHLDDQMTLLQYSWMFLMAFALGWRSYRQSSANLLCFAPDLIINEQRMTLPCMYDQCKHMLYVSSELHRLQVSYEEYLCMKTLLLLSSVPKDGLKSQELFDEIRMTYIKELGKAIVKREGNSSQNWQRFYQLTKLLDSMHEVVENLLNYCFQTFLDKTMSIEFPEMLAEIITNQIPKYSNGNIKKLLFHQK

[3] = system: AR target genes KLK3, KLK4, NKX3.1, FKBP5; assay: Target gene assay (RT-qPCR, R1881-induced AR target genes); format: cell-based, Human; conditions: 100 pM R1881, 24 hours post treatment
Description: (§3) 10,000 LNCaP and CWR22PC cells per well were plated in triplicate in poly-lysine coated 96-well plates (ThermoFisher#152039) in 200 µL of RPMI-1640 media supplemented with 10% charcoal-stripped serum. 24 hours later, cells were treated with 100 pM of R1881 and 8-point dilution for enzalutamide, ARD1 or ARD2 with concentrations ranging from 1 µM to 0.46 nM. After incubation at 37° C. for 24 hours, media was removed, and cells were washed once with PBS. 55 µL per well of iScript RT-qPCR sample preparation reagent (Bio-Rad #1708898) was added and incubated for 2 minutes before lysate was collected for mRNA analysis. RT-qPCR was set up in triplicate using 3 µL of lysate plus 7 µL of pre-mixed SensiFAST™ SYBR No-ROX One-Step Kit reagents (BIOLINE, Cat# BIO-98005) per reaction. The RT-qPCR reactions were run on a Bio-Rad CFX384 Real-Time PCR System and data was plotted with GraphPad Prism 8 software.
as §3, with “15,000” for “10,000”, “24 hours later, cells were treated with 100 pM of R1881 and 8-point dilution for enzalutamide, ARD1 or ARD2 with concentrations ranging from 1 µM to 0.46 nM.” left out, “75” for “55”

[4] = 19 days, 0.1 nM R1881 + 1 µM ARD1 or ARD2, + 30 nM dexamethasone
[5] = 21 days, 0.1 nM R1881 + 1 µM ARV-110, + 30 nM dexamethasone

In the case of `CC(C)N(C)c1ccc([C@H]2C[C@@]3(C)[C@@H](CC[C@@]3(O)C#CC(C)(C)C)[C@@H]3CCC4=CC(=O)CC[C@@H]4[C@H]32)cc1` [Compound 1], the R1881-induced cell growth (CWR22PC cells; [4]) is reported as “fully reverses”, the R1881-induced cell growth (CWR22PC cells; [5]) is reported as “fully reverses” and the “R1881-induced PSA secretion” value (PSA; [4]) is reported as “fully reverses”. For the same molecule, the “R1881-induced PSA secretion” value (PSA; [5]) was “fully reverses”, the “DEX-induced GR and AR target gene expression” value ([1]; 0.5 µM compound 1 in the presence of 1 µM ARD1 or ARD2, 0.1 nM R1881, 30 nM DEX) was “fully reverses” and the “DEX-induced GR and AR target gene expression” value ([1]; 0.5 µM compound 1 in the presence of 1 µM ARV-110, 0.1 nM R1881, 30 nM DEX) was “fully reverses”. The “R1881-induced target gene (biomarker) expression” value ([2]; day 19 EOS, 0.1 nM R1881 + 1 µM ARD1 or ARD2, + 30 nM dexamethasone) was “fully reverses”, the “R1881-induced target gene (biomarker) expression” value ([2]; day 21 EOS, 0.1 nM R1881 + 1 µM ARV-110, + 30 nM dexamethasone) was “fully reverses” and the “sensitivity to enzalutamide treatment” value (GR) was “restores sensitivity to enzalutamide treatment”.
In the case of `C[C@]1(O)CC[C@H]2[C@@H]3CCC4=CC(=O)CCC4=C3C=C[C@@]21C` [Compound R1881], the CWR22PC cell growth (CWR22PC cells; 0.1 nM R1881 without or with 1 µM ARD1 or ARD2, 22 days) is reported as “promotes” and the PSA secretion (PSA; CWR22PC cells, 0.1 nM R1881 without or with 1 µM ARD1 or ARD2, day 22) is reported as “promotes”.
In the case of `CNC(=O)c1ccc(N2C(=S)N(c3ccc(C#N)c(C(F)(F)F)c3)C(=O)C2(C)C)cc1F` [Enzalutamide, enzalutamide], the “AR target gene FKBP5 induced by R1881” value ([3]; CWR22PC cells) is reported as “inhibit”, the “AR target gene KLK3 induced by R1881” value ([3]; CWR22PC cells) is reported as “inhibit” and the “AR target gene KLK4 induced by R1881” value ([3]; CWR22PC cells) is reported as “inhibit”. The “AR target gene NKX3.1 induced by R1881” value ([3]; CWR22PC cells) was “inhibit”, the “AR target gene FKBP5 induced by R1881” value ([3]; LNCaP cells) was “inhibit” and the “AR target gene KLK3 induced by R1881” value ([3]; LNCaP cells) was “inhibit”. For the same molecule, the “AR target gene KLK4 induced by R1881” value ([3]; LNCaP cells) was “inhibit” and the “AR target gene NKX3.1 induced by R1881” value ([3]; LNCaP cells) was “inhibit”.

— US20230302014A1, “USES OF GLUCOCORTICOID RECEPTOR (GR) ANTAGONIST AND ANDROGEN RECEPTOR (AR) DEGRADER COMBINATIONS” (ORIC Pharmaceuticals, Inc., priority 2020, published 2023)
